# Measurements as given in patent US5084449A, “Anti-bacterial compositions comprising a substituted bis-(4-aminophenyl)-sulfone and a dihydro-folic acid reductase” (Dr. Karl Thomae GmbH, priority 1984, dated 1992).
# pIC50: −log10 of the molar value.
# Tested on: not listed separately
# Assay: methemoglobin formation after oral administration to cats
# Assay type: in vivo
# Conditions: 200 mg/kg by oral route
# From the text: Moreover, in contrast to Dapsone®, the new compounds are well tolerated and in particular show a very low methemoglobin formulation.
row,methemoglobin formulation,Structure (SMILES)
1,no methemoglobin formulation is detected,"N#Cc1cc(N)ccc1S(=O)(=O)c1ccc(N)cc1 [Substance I, 4,4'-Diamino-2-cyano-diphenylsulfone]"
2,no methemoglobin formulation is detected,"CCCNc1ccc(S(=O)(=O)c2ccc(N)cc2)c(C)c1 [Substance M, 4'-Amino-2-methyl-4-propylamino-diphenylsulfone]"

# Tested on: 7,8-dihydropteroic acid-synthetase
# Assay: inhibiting effect on 7,8-dihydropteroic acid synthesis in cell-free enzyme extract of plasmodia (HPLC)
# Assay type: biochemical
# Conditions: concentration giving 50% reduction of 7,8-dihydropteroic acid synthesis; cell-free enzyme extract of Plasmodium berghei; incubation 4 hours; HPLC/UV; read-out: i50
# Protocol: M=4'-Amino-2-methyl-4-propylamino-diphenylsulfone were tested for their biological activity in cell-free enzyme extract of Plasmodiumberghei as follows.
# Plasmodia are isolated from mouse blood infected with Plasmodium berghei in accordance with the following reference (Heidrich, H. -G. et al., Z. Parasitenkd. 59: 151 (1979). The plasmodia were opened by ultrasound. Proteins with […] acid synthetase activity are concentrated by gel filtration.
# The inhibiting effect on 7,8-dihydropteroic acid synthesis of plasmodia is determined as follows:
# Under optimum reaction conditions, i.e. Vmax for the reaction which is to be inhibited, the concentration of inhibitor in the new compounds resulting in a 50% reduction in the enzyme synthesis performance is determined. For this purpose the quantity of 7,8-dihydropteroic acid synthesised from the enzyme extract is determined by means of high performance liquid chromatography (HPLC) using a UV detector after an incubation period of 4 hours. It was established that the synthesis of 7,8-dihydropteroic acid proceeded in a linear manner during this period.
# The i50 values obtained by this method for a selection of the compounds claimed and those of the comparison preparations bis (4-aminophenyl)sulfone (Dapsone®, DDS) and N^1 -(5,6-dimethoxy-4-pyrimidinyl)-sulfanilamide (Fanasil®) are given in the following Table: […]
row,Structure (SMILES),pIC50
1,"Nc1ccc(S(=O)(=O)c2ccc(N)cc2)cc1 [Dapsone ®, bis (4-aminophenyl)sulfone, reference compound]",4.91
2,"COc1ncnc(NS(=O)(=O)c2ccc(N)cc2)c1OC [Fanasil ®, N^1-(5,6-dimethoxy-4-pyrimidinyl)-sulfanilamide, reference compound]",3.70
3,"Nc1ccc(S(=O)(=O)c2ccc(N)cc2CO)cc1 [Substance E, 4,4'-Diamino-2-hydroxymethyl-diphenylsulfone]",5.31
4,"CC(O)c1cc(N)ccc1S(=O)(=O)c1ccc(N)cc1 (stereo not shown) [Substance F, 4,4'-Diamino-2-(1-hydroxyethyl)-diphenylsulfone]",4.98
5,"CN(C)c1cc(N)ccc1S(=O)(=O)c1ccc(N)cc1 [Substance G, 4,4'-Diamino-2-(N,N-dimethylamino)-diphenylsulfone]",4.89
6,"CNc1cc(N)ccc1S(=O)(=O)c1ccc(N)cc1 [Substance H, 4,4'-Diamino-2-(N-methylamino)-diphenylsulfone]",5.39
7,"N#Cc1cc(N)ccc1S(=O)(=O)c1ccc(N)cc1 [Substance I, 4,4'-Diamino-2-cyano-diphenylsulfone]",4.90
8,"CC(=O)c1cc(N)ccc1S(=O)(=O)c1ccc(N)cc1 [Substance K, 4,4'-Diamino-2-methylcarbonyl-diphenylsulfone]",4.89

# Other lines, results leading:
row,pIC50,Structure (SMILES)
1,5.68,"CCNc1ccc(S(=O)(=O)c2ccc(N)cc2)c(Cl)c1 [Substance A, 4-Ethylamino-4'-amino-2-chloro-diphenylsulfone]"
2,5.57,"CC(C)Nc1ccc(S(=O)(=O)c2ccc(N)cc2)c(Cl)c1 [Substance B, 4'-Amino-2-chloro-4-isopropylamino-diphenylsulfone]"
3,5.58,"CCNc1ccc(S(=O)(=O)c2ccc(N)cc2)c(C)c1 [Substance C, 4-Ethylamino-4'-amino-2-methyl-diphenylsulfone]"
4,5.23,"CCNc1ccc(S(=O)(=O)c2ccc(N)cc2)c(C(F)(F)F)c1 [Substance D, 4-Ethylamino-4'-amino-2-trifluoromethyl-diphenyl-sulfone]"
5,5.53,"CNc1ccc(S(=O)(=O)c2ccc(N)cc2)c(C)c1 [Substance L, 4'-Amino-2-methyl-4-methylamino-diphenylsulfone]"
6,5.61,"CCCNc1ccc(S(=O)(=O)c2ccc(N)cc2)c(C)c1 [Substance M, 4'-Amino-2-methyl-4-propylamino-diphenylsulfone]"
